Results from patent US20200405666A9, “TREATMENT OF SYMPTOMS ASSOCIATED WITH FEMALE GASTROPARESIS” (priority 2011, published 2020).

Assay: Safety in the clinical study of metoclopramide nasal spray
Assay type: in vivo, human
Settings: 10 mg or 14 mg IN four times daily, four weeks
Method: The objectives of this study were to evaluate the safety and the effectiveness of two doses of metoclopramide nasal spray solution, 10 mg and 14 mg, compared to placebo in reducing the symptoms of diabetic gastroparesis and to assess the plasma concentrations of two doses of metoclopramide nasal spray in subjects with diabetic gastroparesis following a single dose and at steady state. The aforementioned dosages for the treatment and control of gastroparesis were administered before meals and/or before bed time. Subjects who met the entry criteria after the Washout Period (Day −7 to Day −1) were randomized using an IVRS, to metoclopramide nasal spray 10 mg, 14 mg, or placebo, in roughly equal numbers (approximately 1:1:1) using a predetermined randomization schedule employing permuted blocks. Randomization was preformed centrally.
The study consisted of up to a 23-day Screening Period, a 7-day Washout Period (Day −7 to Day −1) followed by four weeks of study drug treatment. The total duration of each subject's participation was approximately 8 weeks, 287 subjects were enrolled in the study and were randomized to the following groups: Placebo (n=95), 10 mg intranasal (n=96) and 14 mg intranasal (n=96). Of those subjects enrolled, a total of 259 completed the study (˜90%).

In the case of `CCN(CC)CCNC(=O)c1cc(Cl)c(N)cc1OC` [metoclopramide, -amino-5-chloro-N-(2-(diethylamino)ethyl)-2-methoxybenzamide], the Dose-limiting toxicities is reported as “no dose-limiting toxicities” and the “Reports of tardive dyskinesia” value is reported as “no reports of tardive dyskinesia”.
